According to ChEMBL document CHEMBL1201862, “PubChem BioAssay data set” (2004):
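Compound exposure: 48 hours, 5 concentrations, 96-well plates. GI50 marks 50% less growth.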 Calls of active or inactive are those of the source. Cut-off read from the data, not from the text of the source: active = GI50 up to about 1.1 µM and inactive = higher.

Key:
Test in all cases: NCI tumour cell line growth inhibition, 48 h
ACHN = tested on: ACHN
HCT-116 = tested on: HCT-116
HL-60 = tested on: HL-60
HOP-62 = tested on: HOP-62
HT-29 = tested on: HT-29
KM12 = tested on: KM12
LOX IMVI = tested on: LOX IMVI
M14 = tested on: M14
MCF7 = tested on: MCF7
Malme-3M = tested on: Malme-3M
NCI-H460 = tested on: NCI-H460
OVCAR-3 = tested on: OVCAR-3
OVCAR-8 = tested on: OVCAR-8
SF-295 = tested on: SF-295
SN12C = tested on: SN12C
UACC-62 = tested on: UACC-62
RXF 393 = tested on: RXF 393
SK-MEL-28 = tested on: SK-MEL-28
SNB-75 = tested on: SNB-75
HCC 2998 = tested on: HCC 2998

Measured: GI50

COc1cccc(Nc2nc(-c3cccs3)nc3ccc(Br)cc23)c1
inactive: ACHN > 100 µM | HCT-116 50.5 µM | HL-60 > 100 µM | HOP-62 20 µM | HT-29 > 100 µM | KM12 74 µM | LOX IMVI > 100 µM | M14 > 100 µM | MCF7 12.7 µM | Malme-3M 72.9 µM | NCI-H460 25.6 µM | OVCAR-3 36.6 µM | OVCAR-8 39.2 µM | SF-295 36.6 µM | SN12C > 100 µM | UACC-62 66.2 µM

Cc1[nH]nc(-c2ccon2)c1N=O
inactive: ACHN 15 µM | HCT-116 23.1 µM | HL-60 12.1 µM | HOP-62 21 µM | HT-29 18.2 µM | KM12 21 µM | M14 20.8 µM | MCF7 22.9 µM | Malme-3M 20.7 µM | NCI-H460 36.1 µM | OVCAR-3 18.4 µM | OVCAR-8 17 µM | RXF 393 34.3 µM | SF-295 18.7 µM | SK-MEL-28 20.2 µM | SN12C 26.7 µM | SNB-75 32.2 µM | UACC-62 17.9 µM

N/C(S)=N/N=C/c1ccc(O)cn1
inactive: ACHN 1.73 µM | HCC 2998 13.6 µM | HCT-116 10.9 µM | HL-60 4.12 µM | HOP-62 4.59 µM | HT-29 22.3 µM | KM12 11.1 µM | LOX IMVI 5.13 µM | M14 5.11 µM | MCF7 3.18 µM | Malme-3M 7.55 µM | NCI-H460 18.5 µM | OVCAR-3 3.52 µM | OVCAR-8 3.51 µM | SF-295 20.4 µM | SK-MEL-28 30.1 µM | SN12C 5.35 µM | SNB-75 9.06 µM

COc1cc(C2c3cc(OC)c(OC)c(O)c3C(=O)C3CCC(=O)N32)cc(OC)c1OC (stereo not given)
inactive: ACHN > 100 µM | HCC 2998 > 100 µM | HCT-116 93.1 µM | HL-60 26.4 µM | HOP-62 > 100 µM | HT-29 70 µM | KM12 48.2 µM | LOX IMVI 40.8 µM | M14 > 100 µM | MCF7 > 100 µM | NCI-H460 > 100 µM | OVCAR-3 34.1 µM | OVCAR-8 25 µM | SF-295 > 100 µM | SK-MEL-28 > 100 µM | SN12C > 100 µM | SNB-75 63.7 µM | UACC-62 64 µM

CC(C)OP(=O)(OC(C)C)c1ccc2c(c1)OCCOCCOCCOCCO2
inactive: ACHN > 100 µM | HCC 2998 > 100 µM | HCT-116 > 100 µM | HL-60 > 100 µM | HOP-62 > 100 µM | HT-29 > 100 µM | KM12 > 100 µM | LOX IMVI 95.7 µM | M14 > 100 µM | MCF7 > 100 µM | Malme-3M > 100 µM | NCI-H460 > 100 µM | OVCAR-8 > 100 µM | SF-295 > 100 µM | SK-MEL-28 > 100 µM | SN12C > 100 µM | SNB-75 > 100 µM | UACC-62 > 100 µM

CC1=C(C(=O)Nc2cccc(Cl)c2)C(c2ccc([N+](=O)[O-])cc2)C(C(=O)Nc2cccc(Cl)c2)=C(C)N1
inactive: ACHN 25.1 µM | HCC 2998 17.9 µM | HCT-116 13.1 µM | HL-60 17.9 µM | HOP-62 29 µM | HT-29 16.6 µM | KM12 21.4 µM | LOX IMVI 14.9 µM | M14 16.6 µM | Malme-3M 21 µM | NCI-H460 20.1 µM | OVCAR-3 25.6 µM | OVCAR-8 30.7 µM | RXF 393 19.5 µM | SF-295 23.6 µM | SK-MEL-28 25.3 µM | SN12C 22.3 µM | SNB-75 10.7 µM | UACC-62 14 µM

CN1CCc2c(sc3nc(S)nc(S)c23)C1
inactive: ACHN > 100 µM | HCT-116 > 100 µM | HL-60 > 100 µM | HOP-62 > 100 µM | HT-29 > 100 µM | KM12 > 100 µM | LOX IMVI > 100 µM | M14 > 100 µM | MCF7 > 100 µM | Malme-3M > 100 µM | NCI-H460 > 100 µM | OVCAR-3 > 100 µM | OVCAR-8 > 100 µM | RXF 393 > 100 µM | SF-295 > 100 µM | SK-MEL-28 > 100 µM | SN12C > 100 µM | SNB-75 > 100 µM | UACC-62 > 100 µM

COCCOc1nc(-c2ccccc2)nc2ccccc12
inactive: ACHN 44.1 µM | HCT-116 46.1 µM | HL-60 29.2 µM | HOP-62 22.1 µM | HT-29 29.6 µM | KM12 30 µM | LOX IMVI 47.8 µM | M14 27.7 µM | MCF7 37.2 µM | Malme-3M 51.1 µM | NCI-H460 19.3 µM | OVCAR-3 95.1 µM | OVCAR-8 42 µM | RXF 393 11.7 µM | SF-295 43.1 µM | SK-MEL-28 53.5 µM | SN12C 27.5 µM | SNB-75 60.8 µM | UACC-62 20.7 µM
